Measurements reported in the NIST ThermoML archive (doi:10.1021/je060271a).
Numbers after ± are expanded uncertainties.

Conditions: 343.15 K, Liquid, Vibrating tube method

CCCCCCC(=O)OCC(COC(=O)CCCCCC)(COC(=O)CCCCCC)COC(=O)CCCCCC [pentaerythritol tetraheptanoate]
Conditions	mass density [kg/m3]
28615 kPa	960.4 ± 1.2
28635 kPa	960.4 ± 1.2
28662 kPa	960.4 ± 1.2
28700 kPa	960.4 ± 1.2
28729 kPa	960.5 ± 1.2
28739 kPa	960.4 ± 1.2
28764 kPa	960.6 ± 1.2
28779 kPa	960.5 ± 1.2
28794 kPa	960.6 ± 1.2
28823 kPa	960.7 ± 1.2
28826 kPa	960.6 ± 1.2
28858 kPa	960.6 ± 1.2
28865 kPa	960.6 ± 1.2
28887 kPa	960.6 ± 1.2
28912 kPa	960.6 ± 1.2
28918 kPa	960.5 ± 1.2
28948 kPa	960.6 ± 1.2
28952 kPa	960.6 ± 1.2
28985 kPa	960.7 ± 1.2
28992 kPa	960.6 ± 1.2
29016 kPa	960.7 ± 1.2
29032 kPa	960.7 ± 1.2
29046 kPa	960.8 ± 1.2
29076 kPa	960.6 ± 1.2
29081 kPa	960.7 ± 1.2
29112 kPa	960.7 ± 1.2
29121 kPa	960.5 ± 1.2
29142 kPa	960.8 ± 1.2
29163 kPa	960.7 ± 1.2
29178 kPa	960.8 ± 1.2
29208 kPa	960.9 ± 1.2
29212 kPa	960.7 ± 1.2
29238 kPa	960.8 ± 1.2
29254 kPa	960.8 ± 1.2
29274 kPa	960.9 ± 1.2
29305 kPa	960.9 ± 1.2
29308 kPa	960.7 ± 1.2
29336 kPa	960.8 ± 1.2
29344 kPa	960.9 ± 1.2
29372 kPa	961 ± 1.2
29387 kPa	960.8 ± 1.2
29434 kPa	961 ± 1.2
29435 kPa	960.9 ± 1.2
29461 kPa	960.9 ± 1.2
29471 kPa	961.1 ± 1.2
29503 kPa	961 ± 1.2
29534 kPa	961 ± 1.2
29540 kPa	961 ± 1.2
29564 kPa	961 ± 1.2
29571 kPa	960.8 ± 1.2
29597 kPa	961.1 ± 1.2
29602 kPa	961.2 ± 1.2
29628 kPa	960.8 ± 1.2
29634 kPa	961.1 ± 1.2
29654 kPa	961 ± 1.2
29666 kPa	961 ± 1.2
29679 kPa	961 ± 1.2
29704 kPa	961.1 ± 1.2
29705 kPa	961.1 ± 1.2
29735 kPa	961.1 ± 1.2
29736 kPa	961.1 ± 1.2
29764 kPa	961.1 ± 1.2
29767 kPa	961.1 ± 1.2
29790 kPa	961.3 ± 1.2
29805 kPa	961.3 ± 1.2
29816 kPa	961.1 ± 1.2
29839 kPa	961.1 ± 1.2
29846 kPa	961.2 ± 1.2
29871 kPa	961.3 ± 1.2
29873 kPa	961.2 ± 1.2
29900 kPa	961.1 ± 1.2
29903 kPa	961.3 ± 1.2
29931 kPa	961.1 ± 1.2
29935 kPa	961.2 ± 1.2
29958 kPa	961.1 ± 1.2
29974 kPa	961.2 ± 1.2
29984 kPa	961.3 ± 1.2
30006 kPa	961.3 ± 1.2
30016 kPa	961.3 ± 1.2
30043 kPa	961.3 ± 1.2
30045 kPa	961.4 ± 1.2
30070 kPa	961.4 ± 1.2
30077 kPa	961.3 ± 1.2
30102 kPa	961.3 ± 1.2
30109 kPa	961.4 ± 1.2
30129 kPa	961.4 ± 1.2
30148 kPa	961.4 ± 1.2
30157 kPa	961.4 ± 1.2
30180 kPa	961.4 ± 1.2
30184 kPa	961.5 ± 1.2
30213 kPa	961.5 ± 1.2
30216 kPa	961.4 ± 1.2
30243 kPa	961.5 ± 1.2
30247 kPa	961.4 ± 1.2
30275 kPa	961.4 ± 1.2
30288 kPa	961.5 ± 1.2
30302 kPa	961.4 ± 1.2
30321 kPa	961.5 ± 1.2
30330 kPa	961.5 ± 1.2
30354 kPa	961.6 ± 1.2
30363 kPa	961.5 ± 1.2
30388 kPa	961.6 ± 1.2
30391 kPa	961.6 ± 1.2
30419 kPa	961.6 ± 1.2
30428 kPa	961.5 ± 1.2
30446 kPa	961.5 ± 1.2
30461 kPa	961.6 ± 1.2
30481 kPa	961.6 ± 1.2
30495 kPa	961.6 ± 1.2
30510 kPa	961.7 ± 1.2
30528 kPa	961.6 ± 1.2
